Measured values taken from US4013777A, “Bis-phenoxypropanolamines” (SmithKline Corporation, priority 1975, dated 1977).
In brackets after ≈: the same amount, converted by molar mass.

Key:
[1] = system: guinea pig tracheal chain preparations; assay: spontaneous tone of guinea pig tracheal chain (ring) preparation, relaxant effect; details: for absolute separation ratio: atrial ED25 versus tracheal ED50, guinea pig in vitro preparations
Excerpt: (§1) Two in vitro test systems used for determining selective β-stimulant activity are: (1) effect on spontaneous tone of guinea pig tracheal chain preparations as a measure of β-stimulant (direct relaxant) effect on airway smooth muscle, and (2) effect on rate of spontaneously beating right atria of the guinea pig as a measure of β-stimulant effect on cardiac muscle.

[2] = system: right atria of the guinea pig; assay: rate of spontaneously beating guinea pig right atria; details: Cavia porcellus; in vitro; β-stimulant effect on cardiac muscle; read-out: ED25, increasing the rate of contraction of guinea pig right atria
Excerpt: as §1

| EC50 ([1]; Cavia porcellus, in vitro, β-stimulant (direct relaxant) effect on airway smooth muscle, read-out: ED50, relaxes the spontaneous tone of guinea pig tracheal ring preparation) [µg/mL] | SMILES | absolute separation ratio [1] | improvement of absolute separation ratio compared to d,l isoproterenol ([1]; versus d,l isoproterenol in similar in vitro preparations) [fold] | EC25 [2] [µg/mL] |
| --- | --- | --- | --- | --- |
| – | CC(C)NCC(O)c1ccc(O)c(O)c1 (racemic) [d,l isoproterenol, reference compound] | 0.5 | – | – |
| 0.00414 (≈ 0.00861 µM) | Oc1ccc(OCC(O)CNCCCCCCNCC(O)COc2ccc(O)c(O)c2)cc1O (centres unmarked) [N,N'-bis[3,4-dihydroxyphenoxy)-2-hydroxypropyl]-1,6-diaminohexane] | 7 | 14 | 0.029 (≈ 0.0603 µM) |
